PubChem BioAssay (NCI)
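All cell lines were grown in 96-well plates and treated with compound for 48 hours. TGI: total growth inhibition.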

Assays:
Experiment in all cases: NCI tumour cell line growth inhibition, 48 h
786-0 renal = system: 786-0 renal
A498 renal = system: A498 renal
A549 NSCLC = system: A549 NSCLC
ACHN renal = system: ACHN renal
BT-549 breast = system: BT-549 breast
CAKI-1 renal = system: CAKI-1 renal
CCRF-CEM leukemia = system: CCRF-CEM leukemia
COLO 205 colon = system: COLO 205 colon
DU-145 prostate = system: DU-145 prostate
EKVX NSCLC = system: EKVX NSCLC
HCC-2998 colon = system: HCC-2998 colon
HCT-116 colon = system: HCT-116 colon
HCT-15 colon = system: HCT-15 colon
HOP-62 NSCLC = system: HOP-62 NSCLC
HOP-92 NSCLC = system: HOP-92 NSCLC
HS 578T breast = system: HS 578T breast
HT29 colon = system: HT29 colon
IGROV1 ovarian = system: IGROV1 ovarian
K-562 leukemia = system: K-562 leukemia
KM12 colon = system: KM12 colon
LOX IMVI melanoma = system: LOX IMVI melanoma
M14 melanoma = system: M14 melanoma
MALME-3M melanoma = system: MALME-3M melanoma
MCF7 breast = system: MCF7 breast
MDA-MB-231 breast = system: MDA-MB-231 breast
MDA-MB-435 = system: MDA-MB-435
MDA-N = system: MDA-N
MOLT-4 leukemia = system: MOLT-4 leukemia
NCI-H226 lung = system: NCI-H226 lung
NCI-H23 lung = system: NCI-H23 lung
NCI-H460 lung = system: NCI-H460 lung
NCI-H522 lung = system: NCI-H522 lung
NCI/ADR-RES ovarian = system: NCI/ADR-RES ovarian
OVCAR-3 ovarian = system: OVCAR-3 ovarian
OVCAR-4 ovarian = system: OVCAR-4 ovarian
OVCAR-5 ovarian = system: OVCAR-5 ovarian
OVCAR-8 ovarian = system: OVCAR-8 ovarian
PC-3 prostate = system: PC-3 prostate
RPMI-8226 leukemia = system: RPMI-8226 leukemia
SF-268 CNS = system: SF-268 CNS
SF-295 CNS = system: SF-295 CNS
SF-539 CNS = system: SF-539 CNS
SK-MEL-28 melanoma = system: SK-MEL-28 melanoma
SK-MEL-5 melanoma = system: SK-MEL-5 melanoma
SK-OV-3 ovarian = system: SK-OV-3 ovarian
SN12C renal = system: SN12C renal
SNB-19 CNS = system: SNB-19 CNS
SR leukemia = system: SR leukemia
SW-620 colon = system: SW-620 colon
T-47D breast = system: T-47D breast
TK-10 renal = system: TK-10 renal
U251 CNS = system: U251 CNS
UACC-257 melanoma = system: UACC-257 melanoma
UACC-62 melanoma = system: UACC-62 melanoma
UO-31 renal = system: UO-31 renal
HL-60(TB) leukemia = system: HL-60(TB) leukemia
RXF 393 renal = system: RXF 393 renal
SK-MEL-2 melanoma = system: SK-MEL-2 melanoma
SNB-75 CNS = system: SNB-75 CNS

Measured: TGI

CN(C(=O)Cc1ccccc1)n1cn[n+](CC(=O)OC(C)(C)C)c1
not listed: HL-60(TB) leukemia | RXF 393 renal | SK-MEL-2 melanoma | SNB-75 CNS
> 10 µM: all other assays above

CC1OC(OC2C(O)CC(OC3C(O)CC(OC4CCC5(C)C(CCC6C5CCC5(C)C(C7=CC(=O)OC7)C(O)CC65O)C4)OC3C)OC2C)CC(O)C1O (stereo not drawn)
0.157 µM: NCI-H522 lung
5.86 µM: SK-MEL-28 melanoma
0.396 µM: CAKI-1 renal
1.85 µM: HOP-92 NSCLC
1.27 µM: MDA-MB-435
0.533 µM: SK-MEL-5 melanoma
1.23 µM: HL-60(TB) leukemia
0.473 µM: ACHN renal
0.532 µM: NCI-H460 lung
0.339 µM: BT-549 breast
1.31 µM: SK-OV-3 ovarian | U251 CNS
14.6 µM: HCC-2998 colon
0.0706 µM: A549 NSCLC
0.787 µM: TK-10 renal
0.236 µM: DU-145 prostate
0.816 µM: MALME-3M melanoma
0.217 µM: SF-539 CNS
0.968 µM: NCI/ADR-RES ovarian
0.63 µM: EKVX NSCLC
5.37 µM: SNB-75 CNS
2.14 µM: NCI-H226 lung
0.908 µM: A498 renal
5.62 µM: OVCAR-5 ovarian
1.18 µM: UACC-62 melanoma
1.58 µM: HCT-15 colon
0.607 µM: SF-268 CNS
0.844 µM: COLO 205 colon
0.813 µM: OVCAR-8 ovarian
0.299 µM: RXF 393 renal
0.313 µM: NCI-H23 lung
3.49 µM: SNB-19 CNS
0.235 µM: LOX IMVI melanoma
9.81 µM: IGROV1 ovarian
1.59 µM: PC-3 prostate
0.497 µM: OVCAR-3 ovarian
2.07 µM: UACC-257 melanoma
2.66 µM: HOP-62 NSCLC
0.886 µM: HT29 colon
1.99 µM: M14 melanoma
1.55 µM: SK-MEL-2 melanoma
1.15 µM: UO-31 renal
1.52 µM: RPMI-8226 leukemia
0.576 µM: HCT-116 colon
1.11 µM: MDA-N
0.809 µM: SF-295 CNS
> 100 µM: CCRF-CEM leukemia | HS 578T breast | K-562 leukemia | SR leukemia
4.72 µM: T-47D breast

NC(Cc1ccccc1)C(=O)OCN1C(=O)C2C3C=CC(C2C1=O)C1C(=O)N(COC(=O)C(N)Cc2ccccc2)C(=O)C31 (stereo not drawn)
37.8 µM: HL-60(TB) leukemia
51.3 µM: MOLT-4 leukemia
48 µM: RPMI-8226 leukemia
39.7 µM: HT29 colon
53.4 µM: SR leukemia
42.2 µM: LOX IMVI melanoma
39.2 µM: MCF7 breast
78.4 µM: HCT-15 colon
74.6 µM: K-562 leukemia
77.3 µM: SW-620 colon
52 µM: SK-MEL-2 melanoma
49.7 µM: CCRF-CEM leukemia
not listed: A498 renal | HOP-92 NSCLC | KM12 colon | OVCAR-4 ovarian | SK-OV-3 ovarian | SNB-75 CNS
> 100 µM: all other assays above

O=S(=O)(c1ccccc1)N1CCCC(c2ccccc2)CC1 (stereo not drawn)
69.1 µM: MOLT-4 leukemia
49.8 µM: RPMI-8226 leukemia
29.9 µM: HL-60(TB) leukemia
53.7 µM: MCF7 breast
94.6 µM: SNB-75 CNS
61.3 µM: HCC-2998 colon
28.9 µM: SK-MEL-5 melanoma
42 µM: HT29 colon
not listed: EKVX NSCLC | HOP-62 NSCLC | HS 578T breast | LOX IMVI melanoma | SK-OV-3 ovarian
> 100 µM: all other assays above
